This is an account of results in PubChem BioAssay AID1963450 (Molecular Pharmacology Branch, DTP, NCI, 2024).

SMILES strings stand for the structures. Several values for one entry are separate records, joined by “and”; a condition that tells them apart may be missing. Equal values may be shown once.

The subject of the assay is 556581-035-R-J1-PDC complex spheroid growth. The experiment in a line: Anticancer human tumor 556581-035-R-J1-PDC patient-derived ovarian carcinoma cell line growth inhibition [Asc]. The conditions noted are these: for viability, T/C: stronger effect = lower value. Put shortly:
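Concentration series start at each agent's clinical Cmax, or at 10 microM when none is established, and drop in half-log steps; agents are applied alone or together to complex spheroids built with HUVEC and hMSC.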
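Further: spheroids exposed to agents for 7 days before viability read.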

As usually defined, the IC50 is the midpoint of a concentration-inhibition curve. For orientation: viability, T/C means the ratio of treated to control. Take `Cn1ncnc1[C@H]1c2n[nH]c(=O)c3cc(F)cc(c23)N[C@@H]1c1ccc(F)cc1` + Cc1c(S(C)(=O)=O)c(-c2cc(F)cc(N3CCN(c4ccc(NS(=O)(=O)c5ccc(NC(CCN6CCC(C(=O)OCCCP(=O)(O)O)CC6)CSc6ccccc6)c(S(=O)(=O)C(F)(F)F)c5)cc4)CC3)c2)c(-c2ccc(Cl)cc2)n1C(C)C: the 50% inhibitory concentration (IC50) is, setting by setting: (curve of first compound, second compound 0.1 µM) above 100 nM; (curve of first compound, second compound 0.316 µM) above 100 nM; (curve of first compound, second compound 1 µM) above 100 nM; (curve of first compound, second compound 3.16 µM) above 100 nM; (curve of first compound, second compound 10 µM) above 100 nM. Moreover, the viability, T/C (second compound 0.1 µM, first compound 0.000316 µM) is 67.5%; the viability, T/C (second compound 0.1 µM, first compound 0.001 µM) is 88%; the viability, T/C (second compound 0.1 µM, first compound 0.00316 µM) was 94.8%; the viability, T/C (second compound 0.1 µM, first compound 0.01 µM) was 78%; the viability, T/C (second compound 0.1 µM, first compound 0.0316 µM) is 84.4%; the viability, T/C (second compound 0.1 µM, first compound 0.1 µM) is 77.2%. Moreover, the viability, T/C (second compound 0.316 µM, first compound 0.000316 µM) is 84.9%; the viability, T/C (second compound 0.316 µM, first compound 0.001 µM) was 81.1%; the viability, T/C (second compound 0.316 µM, first compound 0.00316 µM) is 72%; the viability, T/C (second compound 0.316 µM, first compound 0.01 µM) was 66.6%; the viability, T/C (second compound 0.316 µM, first compound 0.0316 µM) was 79.9%; the viability, T/C (second compound 0.316 µM, first compound 0.1 µM) was 84%. The viability, T/C (second compound 1 µM, first compound 0.000316 µM) was 79.5%; the viability, T/C (second compound 1 µM, first compound 0.001 µM) is 84.2%; the viability, T/C (second compound 1 µM, first compound 0.00316 µM) is 78.3%; the viability, T/C (second compound 1 µM, first compound 0.01 µM) is 79.8%; the viability, T/C (second compound 1 µM, first compound 0.0316 µM) is 73.7%; the viability, T/C (second compound 1 µM, first compound 0.1 µM) was 72.1%. The viability, T/C is, setting by setting: (second compound 3.16 µM, first compound 0.000316 µM) 74.3%; (second compound 3.16 µM, first compound 0.001 µM) 73.2%; (second compound 3.16 µM, first compound 0.00316 µM) 70.2%; (second compound 3.16 µM, first compound 0.01 µM) 72.9%; (second compound 3.16 µM, first compound 0.0316 µM) 64.4%; (second compound 3.16 µM, first compound 0.1 µM) 81.8%. For the same compound, the viability, T/C reads like this: (second compound 10 µM, first compound 0.000316 µM) 86.4%; (second compound 10 µM, first compound 0.001 µM) 69.2%; (second compound 10 µM, first compound 0.00316 µM) 66.5%; (second compound 10 µM, first compound 0.01 µM) 64.5%; (second compound 10 µM, first compound 0.0316 µM) 62.7%; (second compound 10 µM, first compound 0.1 µM) 64.9%.

Take `Cn1ncnc1[C@H]1c2n[nH]c(=O)c3cc(F)cc(c23)N[C@@H]1c1ccc(F)cc1`: the viability, T/C by setting is: (compound 0.000316 µM) 100% and 86.8% and 84.9%; (compound 0.001 µM) 111% and 95.3% and 97%; (compound 0.00316 µM) 97.7% and 107% and 74.9%; (compound 0.01 µM) 106% and 99.9% and 76.3%; (compound 0.0316 µM) 105% and 86.6% and 94.5%; (compound 0.1 µM) 99.7% and 85.6% and 94.2%. Besides, for the setting “curve of compound”, the IC50 is above 100 nM.

With `C#Cc1c(F)ccc2cc(O)cc(-c3ncc4c(N5CC6CCC(C5)N6)nc(OCC56CCCN5CC(F)C6)nc4c3F)c12` (centres undefined), the viability, T/C (compound 0.0316 µM) was 101% and 92.2% and 88%; the viability, T/C (compound 0.1 µM) was 105% and 102% and 87.2%; the viability, T/C (compound 0.316 µM) is 94.2% and 81% and 90.1%; the viability, T/C (compound 1 µM) was 102% and 80.5% and 75.8%; the viability, T/C (compound 3.16 µM) is 97.2% and 89.5% and 113%; the viability, T/C (compound 10 µM) was 91.1% and 85.6% and 83.9%. Moreover, where the note is “curve of compound”, the concentration for half-maximal inhibition (IC50) is above 10000 nM.
